These results are taken from patent US8354436B2 (4SC Discovery GmbH, priority 2011, dated 2013).

Each structure is given as a SMILES string. Like-named read-outs stand apart in the source and are kept apart here.

Format in all cases: cell-based
What all share (details): 48 hours

Assay [1] concerns IL-17FF. Briefly: IL-17FF production by PHA-stimulated human PBMC (human IL-17F ELI-Pair). As for the experimental part:
Analysis of Proliferation of and Cytokine Production by Human PBMC Stimulated with PHA
Peripheral blood mononuclear cells (PBMC) from healthy human donors were purified using Accuspin™ System-Histopaque-1077 (Sigma) according to the protocol recommended by the manufacturer. Purified PBMC were then washed twice with phosphate-buffered saline (PBS) and resuspended in RPMI1640 culture medium supplemented with 10% dialyzed heat inactivated fetal calf serum, 1.5 mM L-glutamine, 100 U penicillin/ml, and […] (all from PAN Biotech, Aidenbach, Germany). For stimulation, PBMC were seeded at 1×10^5 cells/well, activated with 2 μg/ml phytohaemagglutinin (PHA, Sigma) and incubated with the test compounds for 48 hours. IL-17A, IL-17F and INF-γ were then determined in the culture supernatant using a Luminex BioPlex system, following the manufacturer's instructions (BioRad, Munich, Germany). For screening, compounds were used at 10, 1, 0.1 and 0.01 μM. To determine the IC50, compounds were titrated semilogarithmically.
Cytokines were determined in the aforementioned culture supernatant using the following methods: IL-17AA/AF was measured using the Luminex BioPlex system (BioRad, Munich, Germany); IL-17AA using the human homodimer IL-17A ELISA Ready Set Go Kit from eBioscience (Frankfurt, Germany); IL-17FF using the human IL-17F ELI-Pair from Hölzel DiagnosticaGmBH (Köln, Germany); and IFN-γ using the OptEIA human IFN-g ELISA from BD Bioscience (Heidelberg, Germany), all following the manufacturer's instructions.

The test system of assay [2] is PBMC from healthy human donors. Briefly: T cell proliferation assay (PHA-stimulated human PBMC, BrdU ELISA). The method in brief:
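Healthy-donor PBMC isolated on Ficoll, seeded at 1×10⁵ cells/well in RPMI with 10% dialysed FCS, stimulated with 2 μg/ml PHA in presence of test compound. Proliferation read after 48 hours by BrdU-incorporation ELISA.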
On the technique in general: Uptake of a labelled nucleoside into DNA is a usual measure of proliferation.

Assay [3] has as its system IFN-γ. Briefly: IFN-γ production by PHA-stimulated human PBMC (OptEIA human IFN-g ELISA). Put shortly:
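Healthy-donor PBMC (1×10^5 cells/well) were activated with 2 μg/ml PHA and cultured with test compounds for 48 hours; cytokines were then quantified in supernatants by the respective immunoassay. Screening used 10, 1, 0.1 and 0.01 μM; IC50 came from semilogarithmic compound titration.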
A general note: In an ELISA, binding on a coated surface is turned into a signal by an enzyme label.

[4] abbreviates: PHA-stimulated human PBMC, column B, read-out: IC50 (IL-17FF).
Where [5] appears, read: PHA-stimulated human PBMC, column D, read-out: IC50 (Tcell proliferation).
[6] abbreviates: PHA-stimulated human PBMC, column C, read-out: IC50 (IFNγ).
Where [7] appears, read: human PBMC, 2 μg/ml PHA, read-out: B: IC50 (IL-17FF).
Setting [8] is: human PBMC, 2 μg/ml PHA, read-out: D: IC50 (Tcell proliferation).
[9] abbreviates: human PBMC, 2 μg/ml PHA, read-out: C: IC50 (IFNγ).

On to `COC(=O)c1c(-c2c(F)cccc2Cl)noc1-c1cnn(-c2cc(F)cc(F)c2)c1C(F)(F)F` [Example I-50, methyl 3-(2-chloro-6-fluorophenyl)-5-(1-(3,5-difluorophenyl)-5-(trifluoromethyl)-1H-pyrazol-4-yl)isoxazole-4-carboxylate], for which the IC50 in assay [1] (setting [4]), in assay [2] (setting [5]) and in assay [3] (setting [6]) was less than 10 nM each time.

Turning to `CCOC(=O)c1c(-c2c(F)cccc2Cl)noc1-c1cnn(CCN2CCOCC2)c1C(F)(F)F` [IB-97, ethyl 3-(2-chloro-6-fluorophenyl)-5-(1-(2-morpholinoethyl)-5-(trifluoromethyl)-1H-pyrazol-4-yl)isoxazole-4-carboxylate], the IC50 lay in the range of 100 to 1000 nM in assay [1] (setting [4]), 1000 to 10000 nM in assay [2] (setting [5]) and 100 to 1000 nM in assay [3] (setting [6]).

For the compound `CCOC(=O)c1c(-c2ccncc2F)noc1-c1cnn(-c2cccnc2)c1C(F)(F)F` [IB-17, ethyl 3-(3-fluoropyridin-4-yl)-5-(1-(pyridin-3-yl)-5-(trifluoromethyl)-1H-pyrazol-4-yl)isoxazole-4-carboxylate], the results for the IC50 in assay [1] (setting [4]), in assay [2] (setting [5]) and in assay [3] (setting [6]) were 100 to 1000 nM, 1000 to 10000 nM and 1000 to 10000 nM, respectively.

With `O=C(NCc1ccccc1C(F)(F)F)c1c(-c2c(F)cccc2Cl)noc1-c1cnn(-c2ccccc2F)c1C(F)(F)F` [Example I-23, 3-(2-chloro-6-fluorophenyl)-5-(1-(2-fluorophenyl)-5-(trifluoromethyl)-1H-pyrazol-4-yl)-N-(2-(trifluoromethyl)ben-zyl)isoxazole-4-carboxamide], the IC50 in assay [1] (setting [4]) lay within 1000 to 10000 nM; in assay [2] (setting [5]), 1000 to 10000 nM; in assay [3] (setting [6]), 100 to 1000 nM.

`CON(C)C(=O)c1c(-c2c(F)cccc2Cl)noc1-c1cnn(-c2ccccc2Cl)c1C(F)(F)F` [IB-51, 3-(2-chloro-6-fluorophenyl)-5-(1-(2-chlorophenyl)-5-(trifluoromethyl)-1H-pyrazol-4-yl)-N-methoxy-N-methylisoxazole-4-carboxamide]: the IC50 in assay [1] (setting [4]), in assay [2] (setting [5]) and in assay [3] (setting [6]) was 1000 to 10000 nM throughout.

On to `CC(C)NS(=O)(=O)c1cccc(-n2ncc(-c3onc(-c4c(F)cccc4Cl)c3C(=O)OC(C)C)c2C(F)(F)F)c1` [IB-79, isopropyl 3-(2-chloro-6-fluorophenyl)-5-(1-(3-(N-isopropylsulfamoyl)phenyl)-5-(trifluoromethyl)-1H-pyrazol-4-yl)isoxazole-4-carboxylate], for which the IC50 in assay [1] (setting [4]), in assay [2] (setting [5]) and in assay [3] (setting [6]) was 100 to 1000 nM each time.

On to `CCOC(=O)c1c(-c2ccccc2F)noc1-c1cnn(-c2cccc(Cl)c2)c1C(F)(F)F` [IB-47, ethyl 5-(1-(3-chlorophenyl)-5-(trifluoromethyl)-1H-pyrazol-4-yl)-3-(2-fluorophenyl)isoxazole-4-carboxylate], for which the IC50 in assay [1] (setting [4]), in assay [2] (setting [5]) and in assay [3] (setting [6]) was 10 to 100 nM in each case.

As for `CCOC(=O)c1c(-c2c(F)cccc2Cl)noc1-c1cnn(-c2cccnc2)c1C(F)(F)F` [IB-37, ethyl 3-(2-chloro-6-fluorophenyl)-5-(1-(pyridin-3-yl)-5-(trifluoromethyl)-1H-pyrazol-4-yl)-isoxazole-4-carboxylate], the IC50 in assay [1] (setting [4]), in assay [2] (setting [5]) and in assay [3] (setting [6]) was less than 10 nM each time.

As for `CCOC(=O)c1c(-c2c(F)cccc2Cl)noc1-c1cnn(-c2ccccc2F)c1C(F)(F)F` [Example I-42, Ethyl 3-(2-chloro-6-fluorophenyl)-5-[1-(2-fluorophenyl)-5-(trifluoromethyl)-1H-pyrazol-4-yl]isoxazole-4-carboxylate], the IC50 in assay [1] (setting [4]) was 10 to 100 nM; in assay [2] (setting [5]), 10 to 100 nM; in assay [3] (setting [6]) it was less than 10 nM.

In the case of `Fc1cccc(Cl)c1-c1noc(-c2cnn(-c3cccnc3)c2C(F)(F)F)c1-c1cnco1` [Example B-32, 3-(2-chloro-6-fluorophenyl)-4-(oxazol-5-yl)-5-(1-(pyridin-3-yl)-5-(trifluoromethyl)-1H-pyrazol-4-yl)isoxazole], the IC50 in assay [1] (setting [7]) fell in the range of 1000 to 10000 nM; in assay [2] (setting [8]), 1000 to 10000 nM; in assay [3] (setting [9]) it was 100 to 1000 nM.

With `CNC(=O)c1c(-c2c(F)cccc2Cl)noc1-c1cnn(-c2ccc(F)cc2)c1C(F)(F)F` [Example I-55, 3-(2-chloro-6-fluorophenyl)-5-(1-(4-fluorophenyl)-5-(trifluoromethyl)-1H-pyrazol-4-yl)-N-methylisoxazole-4-carboxamide], the IC50 in assay [1] (setting [4]), in assay [2] (setting [5]) and in assay [3] (setting [6]) was 100 to 1000 nM in each case.

Consider `CNC(=S)c1c(-c2c(F)cccc2Cl)noc1-c1cnn(-c2cccc(F)c2)c1C(F)(F)F` [Example I-122, 3-(2-chloro-6-fluorophenyl)-5-(1-(3-fluorophenyl)-5-(trifluoromethyl)-1H-pyrazol-4-yl)-N-methylisoxazole-4-carbothioamide], for which the IC50 in assay [1] (setting [4]), in assay [2] (setting [5]) and in assay [3] (setting [6]) was 100 to 1000 nM throughout.

Turning to `Fc1cccc(-n2ncc(-c3onc(-c4c(F)cccc4Cl)c3-c3ccco3)c2C(F)(F)F)c1` [Example 17, 3-(2-chloro-6-fluorophenyl)-5-(1-(3-fluorophenyl)-5-(trifluoromethyl)-1H-pyrazol-4-yl)-4-(furan-2-yl)isoxazole], the IC50 in assay [1] (setting [7]), in assay [2] (setting [8]) and in assay [3] (setting [9]) was less than 10 nM throughout.

With `CCOC(=O)c1c(-c2c(F)cccc2Cl)noc1-c1cnn(-c2ccccc2C#N)c1C(F)(F)F` [IB-44, ethyl 3-(2-chloro-6-fluorophenyl)-5-(1-(2-cyanophenyl)-5-(trifluoromethyl)-1H-pyrazol-4-yl)-isoxazole-4-carboxylate], the IC50 in assay [1] (setting [4]), in assay [2] (setting [5]) and in assay [3] (setting [6]) was 1000 to 10000 nM in each case.

On to `CCOC(=O)c1c(-c2c(Cl)cncc2Cl)noc1-c1cnn(-c2ccccc2Cl)c1C(F)(F)F` [IB-16, ethyl 5-(1-(2-chlorophenyl)-5-(trifluoromethyl)-1H-pyrazol-4-yl)-3-(3,5-dichloropyridin-4-yl)isoxazole-4-carboxylate], for which the IC50 fell in the range of 100 to 1000 nM in assay [1] (setting [4]), 1000 to 10000 nM in assay [2] (setting [5]) and 1000 to 10000 nM in assay [3] (setting [6]).

As for `CCOC(=O)c1c(-c2ccncc2F)noc1-c1cnn(-c2ccccc2Cl)c1C(F)(F)F` [IB-13, ethyl 5-(1-(2-chlorophenyl)-5-(trifluoromethyl)-1H-pyrazol-4-yl)-3-(3-fluoropyridin-4-yl)isoxazole-4-carboxylate], the IC50 in assay [1] (setting [4]), in assay [2] (setting [5]) and in assay [3] (setting [6]) was 10 to 100 nM in each case.

In the case of `COCCn1ncc(-c2onc(-c3c(F)cccc3Cl)c2C(=O)OC)c1C(F)(F)F` [Example I-102, methyl 3-(2-chloro-6-fluorophenyl)-5-(1-(2-methoxyethyl)-5-(trifluoromethyl)-1H-pyrazol-4-yl)isoxazole-4-carboxylate], the values for the IC50 in assay [1] (setting [4]), in assay [2] (setting [5]) and in assay [3] (setting [6]) were 1000 to 10000 nM, 100 to 1000 nM and 1000 to 10000 nM, respectively.

Turning to `COc1csc(-c2c(-c3c(F)cccc3Cl)noc2-c2cnn(-c3cccc(F)c3)c2C(F)(F)F)n1` [Example 10, 3-(2-chloro-6-fluorophenyl)-5-(1-(3-fluorophenyl)-5-(trifluoromethyl)-1H-pyrazol-4-yl)-4-(4-methoxythiazol-2-yl)isoxazole], the results for the IC50 in assay [1] (setting [7]), in assay [2] (setting [8]) and in assay [3] (setting [9]) were 100 to 1000 nM, 10 to 100 nM and 10 to 100 nM, respectively.

For `Fc1cccc(-n2ncc(-c3onc(-c4c(F)cccc4Cl)c3Br)c2C(F)(F)F)c1` [Example I-137, 4-bromo-3-(2-chloro-6-fluorophenyl)-5-(1-(3-fluorophenyl)-5-(trifluoromethyl)-1H-pyrazol-4-yl)isoxazole], the IC50 lay in the range of 100 to 1000 nM in assay [1] (setting [4]), 10 to 100 nM in assay [2] (setting [5]) and 100 to 1000 nM in assay [3] (setting [6]).

With `COC(=O)c1c(-c2c(F)cccc2Cl)noc1-c1cnn(-c2cccnc2)c1C(F)(F)F` [IB-67, methyl 3-(2-chloro-6-fluorophenyl)-5-(1-(pyridin-3-yl)-5-(trifluoromethyl)-1H-pyrazol-4-yl)isoxazole-4-carboxylate], the IC50 in assay [1] (setting [4]), in assay [2] (setting [5]) and in assay [3] (setting [6]) was 10 to 100 nM in each case.
